Data published in EP0233461B2, “4,5,6-Substituted-2-pyrimidinamines” (AMERICAN CYANAMID COMPANY, priority 1986, dated 1987).
Where a name gives a salt, the structure may show the parent alone.

The compounds below were run on human basophils (assay: Inhibition of histamine release from immunologically stimulated human basophils). Conditions: Homo sapiens, concentration causing 50% inhibition of histamine release, by linear regression; active if IC50 ≦ 48 µM; read-out: IC50.
Assay type: cell-based
Method: The blood is allowed to sediment at room temperature in two 50 ml polycarbonate centrifuge tubes until a sharp interface develops between the red cells and plasma (60-90 minutes). The plasma (top) layer from each tube is withdrawn by pipet and transferred to respective 50 ml polycarbonate tubes. The plasma is centrifuged for 8 minutes at 110X G at 4°C. The supernatant is carefully poured off as completely as possible and the cell button is resuspended in 2-3 ml of Tris-A buffer using a siliconized Pasteur pipet. The resuspension is accomplished by drawing the liquid gently in an out of the pipet, with the tip below the liquid until an even suspension of cells is obtained. Sufficient Tris-A buffer is then added to bring the volume in the tube to about 45 ml and the tube is centrifuged at 110X G for 8 minutes at 4°C. The supernatant is poured off and the cell button is resuspended and centrifuged as described above. The supernatant is poured off and the cell button is suspended in 2-3 ml of Tris-ACM buffer to make the final volume sufficient to allow addition to the reaction tubes. Reaction tubes containing anti-IgE or antigens, either alone or with test compound in a total volume of 0.2 ml are prepared and placed in a 37°C bath. The cells are warmed to 37°C and frequently swirled to ensure an even suspension, while 1.0 ml aliquots are added to each reaction tube. The tubes are then incubated for 60 minutes at 37°C, vortexing the tubes gently every 15 minutes to keep the cells evenly suspended. When the reaction is complete, the tubes are centrifuged at 4°C for 10 minutes at 1500 rpm to sediment the cells. […] Blanks and totals are included in each test. The blanks have cells and all reagents except antigen or anti-IgE. The totals contain 0.24 ml of 8% perchloric acid, one ml of cells and 0.2 ml of buffer. All samples are then centrifuged to remove the precipitate protein. […] The automated system consists of the following Technicon Autoanalyzer II components Sampler IV, Dual-Speed Proportioning Pump III, Fluoronephelometer with a narrow pass primary filter 7-60 and a secondary filter 3-74, Recorder, and Digital Printer. The manifold used is the one described by Siraganian vide supra, with the following modifications: the dialyzer is omitted; all pumping tubes pass through a single proportioning pump with large capacity and twice the volume of sample is taken for anaylsis. The automated chemistry consists of the following steps: Extraction from alkaline saline into butanol, back extraction into dilute hydrochloric acid by addition of heptane, reaction of histamine with o-phthaldialdehyde (OPT) at high pH and conversion of the OPT adduct to a stable fluorophore with phosphoric acid. The reaction product is then passed through the fluorometer. The full scale response is adjusted to 50 ng histamine base with a threshold sensitivity of approximately 0.5 ng. The instrument blank (wash) is substracted from the ng histamine of each sample. Then the ng histamine of each sample is divided by the mean of the three totals (cells lysed with perchloric acid) to obtain percent release. Control samples contain antigen but no test compound. Blank (or spontaneous release) samples contain neither antigen nor test compound. The mean of the blanks (three replicates) is subtracted from the percent release for controls and test compounds.

Structure (SMILES)	IC50 [µM]
CC(NC=O)c1cccc(Nc2nccc(-c3cccnc3)n2)c1 (stereo not shown) [N-[1-[3-[[4-(3-Pyridinyl)-2-pyrimidinyl]amino]phenyl]ethyl]formamide]	4.6
CCN(CC)CCOc1ccc(Nc2nccc(-c3cccnc3)n2)cc1 [N-[4-[2-Diethylamino)ethaxy]phenyl]-4-(3-pyridinyl)-2-pyrimidinamine]	0.2
Cc1cnc(Nc2ccc(N(C)C)cc2)nc1-c1ccco1 [N'-[4-(2-Furanyl)-5-methyl-2-pyrimidinyl]-N,N-dimethyl-1,4-benzenediamine]	6.1
c1ccc(-c2ccnc(Nc3ccc(-n4ccnc4)cc3)n2)nc1 [N-[4-(1H-Imidazol-1-yl)phenyl]-4-(2-pyridinyl)-2-pyrimidinamine]	1.8
CN(C)c1cccc(Nc2nccc(-c3ccccn3)n2)c1 [N,N-Dimethyl-N'-[4-(2-pyridinyl)-2-pyrimidinyl]-1,3-benzenediamine]	0.5
CCOC(=O)COc1ccc(Nc2nccc(-c3ccncc3)n2)cc1 [[4-[[4-Pyridinyl)-2-pyrimidinyl]amino]phenoxy]acetic acid, ethyl ester]	5.8
Cc1ccc(C)c(Nc2nccc(-c3ccncc3)n2)c1 [N-(2,5-Dimethylphenyl)-4-(4-pyridinyl)-2-pyrimidinamine]	47.1
CCc1ccc(Nc2nc(C)cc(-c3ccc(C)nc3)n2)cc1 [N-(4-Ethylphenyl)-6-methyl-4-(6-methyl-3-pyridinyl)-2-pyrimidinamine]	19.1
CCN(CC)c1ccc(Nc2nccc(-c3cccnc3)n2)cc1 [N,N-Diethyl-N'-[4-(3-pyridinyl)-2-pyrimidinyl]-1,4-benzenediamine]	1.7
CN1CCN(c2ccc(Nc3nccc(-c4ccncc4)n3)cc2)CC1 [N-[4-(4-Methyl-1-piperazinyl)phenyl]-4-(4-pyridinyl)-2-pyrimidinamine]	0.6
NS(=O)(=O)c1cccc(Nc2nccc(-c3ccccn3)n2)c1 [3-[[4-(2-Pyridinyl)-2-pyrimidinyl]amino]benzenesulfonamide]	0.7
FC(F)(F)c1cc(Nc2nccc(-c3ccncc3)n2)ccc1-n1ccnc1 [N-[4-(1H-Imidazol-1-yl)-3-(trifluoromethyl)-phenyl]-4-(4-pyridinyl)-2-pyrimidinamine]	0.4
Cc1cc(-c2ccnc(Nc3ccc(N(C)C)cc3)n2)c(C)o1 [N'-[4-(2,5-Dimethyl-3-furanyl)-2-pyrimidinyl]-N,N-dimethyl-1,4-benzenediamine]	4.9
Cc1cnc(Nc2cccc(N(C)C)c2)nc1-c1ccco1 [N,N-Dimethyl-N'-[4-(2-furanyl)-5-methyl-2-pyrimidinyl]-1,3-benzene-diamine]	40
Fc1ccc(Nc2nccc(-c3ccncc3)n2)c(F)c1 [N-(2,4-Difluorophenyl)-4-(4-pyri-dinyl)-2-pyrimidinamine]	< 48
CN(C)CCOc1ccc(Nc2nccc(-c3cccnc3)n2)cc1 [N-[4-[2-(Dimethylamino)ethoxy]phenyl]-4-(3-pyridinyl)-2-pyrimidinamine]	0.5
CN(C)CCOc1ccc(N(CCN(C)C)c2nccc(-c3ccncc3)n2)cc1 [N-[4-[2-(Dimethylamino)ethoxy]phenyl]-N',N'-dimethyl-N-[4-(4-pyridinyl)-2-pyrimidinyl]-1,2-ethanediamine]	9.1
CCN(CC)CCOc1cccc(Nc2nccc(-c3ccncc3)n2)c1 [N-[3-[2-(Diethylamino)ethoxy]phenyl]-4-(4-pyridinyl)-2-pyrimidinamine]	0.7

Structure (SMILES)	IC50 [µM]
Fc1cccc(Nc2nccc(-c3cccnc3)n2)c1 [N-(3-Fluorophenyl)-4-(3-pyridinyl)-2-pyrimidinamine]	3.3
NS(=O)(=O)c1cccc(Nc2nccc(-c3ccncc3)n2)c1 [3-[[4-(4-Pyridinyl)-2-pyrimidinyl]-amino]benzenesulfonamide]	0.5
NS(=O)(=O)c1ccc(Nc2nccc(-c3cccnc3)n2)cc1 [4-[[4-(3-pyridinyl)-2-pyrimidinyl]amino]benzenesulfonamide]	0.2
c1cncc(-c2ccnc(Nc3cccc(-n4ccnc4)c3)n2)c1 [N-[3-(1H-Imidazol-1-yl)phenyl]-4-(3-pyridinyl)-2-pyrimidinamine]	0.1
CC(=O)c1cccc(Nc2nccc(-c3cccnc3)n2)c1 [1-[3-[[4-(3-Pyridinyl)-2-pyrimidinyl]amino]-phenyl]ethanone]	4.1
NS(=O)(=O)c1cccc(Nc2nccc(-c3cccnc3)n2)c1 [3-[[4-(3-Pyridinyl)-2-pyrimidinyl]amino]benzenesulfonamide]	0.2
CC(=O)Nc1ccc(Nc2nccc(-c3cccs3)n2)cc1 [N-[4-[[4-(2-Thienyl)-2-pyrimidinyl]amino]-phenyl]acetamide]	0.2
Cc1cccc(Nc2nccc(-c3cc(C)oc3C)n2)c1 [4-(2,5-Dimethyl-3-furanyl)-N-(3-methylphenyl)-2-pyrimidinamine]	28.5
CCc1ccc(Nc2ncc(C)c(-c3ccncc3)n2)cc1 [N-(4-Ethylphenyl)-5-methyl-4-(4-pyridinyl)-2-pyrimidinamine]	< 48
CCc1ccc(Nc2nccc(-c3ccncc3)n2)cc1 [N-(4-Ethylphenyl)-4-(4-pyridinyl)-2-pyrimidinamine]	7.7
CN(C)CCCOc1ccc(Nc2nccc(-c3ccncc3)n2)cc1 [N-[4-[3-(Dimethylamino)propoxy]phenyl]-4-(4-pyridinyl)-2-pyrimidinamine]	1.3
CC(=NO)c1ccc(Nc2nccc(-c3cccnc3)n2)cc1 [1-[4-[[4-(3-Pyridinyl)-2-pyrimidinyl]amino]phenyl]ethanone, oxime]	11.4
c1ccc(Nc2nccc(-c3cccs3)n2)cc1 [N-Phenyl-4-(2-thienyl)-2-pyrimidinamine]	31.7
COc1cccc(Nc2nccc(-c3cc(C)oc3C)n2)c1 [N-(3-Methoxyphenyl)-4-(2,5-dimethyl-3-furanyl)-2-pyrimidinamine]	5.8
CN1CCN(c2ccc(Nc3nccc(-c4cccs4)n3)cc2)CC1 [N-[4-(4-Methyl-1-piperazinyl)phenyl]-4-(2-thienyl)-2-pyrimidinamine]	< 24
CCN(CC)c1ccc(Nc2nccc(-c3ccc(C)o3)n2)cc1 [N,N-Diethyl-N'-[4-(5-methyl-2-fur-anyl)-2-pyrimidinyl]-1,4-benzene-diamine]	28
C=CCOc1ccc(Nc2nccc(-c3cccnc3)n2)cc1 [N-[4-(2-Propenyloxy)phenyl]-4-(3-pyridinyl)-2-pyrimidinamine]	0.8
CCOC(=O)C(=O)N(c1ccccc1)c1nccc(-c2ccncc2)n1 [Oxo[phenyl[4-(4-pyridinyl)-2-pyrimidinyl]amino]acetic acid, ethyl ester]	2.1

Same assay, conditions: concentration causing 50% inhibition of histamine release, by linear regression; active if IC50 ≦ 48 µM; dihydrochloride; read-out: IC50

Structure (SMILES)	IC50 [µM]
c1ccc(Nc2nccc(-c3ccncc3)n2)cc1 [N-Phenyl-4-(4-pyridinyl)-2-pyrimidinamine, dihydrochloride]	3

Same assay, conditions: concentration causing 50% inhibition of histamine release, by linear regression; active if IC50 ≦ 48 µM; phosphate; read-out: IC50

Structure (SMILES)	IC50 [µM]
COc1ccc(Nc2nccc(-c3cccnc3)n2)cc1 [N-(4-Methoxyphenyl)-4-(3-pyridinyl)-2-pyrimidinamine, phosphate]	3.2

Same assay, conditions: concentration causing 50% inhibition of histamine release, by linear regression; active if IC50 ≦ 48 µM; read-out: IC50

Structure (SMILES)	IC50 [µM]
Cc1cccc(Nc2nccc(-c3ccco3)n2)c1 [4-(2-Furanyl)-N-[3-(methylphenyl)]-2-pyrimidinamine, sulfate]	3
c1ccc(Nc2nccc(-c3ccncc3)n2)cc1 [N-Phenyl-4-(4-pyridinyl)-2-pyrimidinamine, (Z)-2-butenedioat] [N-Phenyl-4-(4-pyridinyl)-2-pyrimidinamine, (Z)-2-butenedioate (1:1)]	1
Nc1ccc(Nc2nccc(-c3ccncc3)n2)cc1 [N-[4-(4-Pyridinyl)-2-pyrimidinyl)-1,4-benzenediamine]	2.4
c1ccc(Nc2nccc(-c3cccnc3)n2)cc1 [N-Phenyl-4-(3-pyridinyl)-2-pyrimidinamine]	0.9

Same assay, conditions: concentration causing 50% inhibition of histamine release, by linear regression; active if IC50 ≦ 48 µM; trihydrochloride; read-out: IC50

Structure (SMILES)	IC50 [µM]
CN(C)c1ccc(Nc2nccc(-c3cccnc3)n2)cc1 [N,N-Dimethyl-N'-[4-(3-pyridinyl)-2-pyrimidinyl]-1,4-benzenediamine, trihydrochloride]	1.5
